Data set [1] deals with Escherichia coli. Put plainly: Antimicrobial activity against […] Escherichia coli harboring mcr-1 assessed as bacterial growth inhibition incubated for 20 hrs by broth microdilution method. The data set is classed as functional.
The subject of data set [2] is Klebsiella pneumoniae. Put plainly: Antimicrobial activity against Klebsiella pneumoniae ATCC 13883 assessed as bacterial growth inhibition incubated for 20 hrs by broth microdilution method. It is filed as functional. Background: In broth dilution the organism is exposed to a series of concentrations in liquid medium.
For data set [3], the system named is Pseudomonas aeruginosa. Put plainly: Antimicrobial activity against Pseudomonas aeruginosa PAO1 assessed as bacterial growth inhibition incubated for 20 hrs by broth microdilution method. The data set is classed as functional.
Data set [4] relates to Acinetobacter baumannii. Put plainly: Antimicrobial activity against Acinetobacter baumannii ATCC 19606 assessed as bacterial growth inhibition incubated for 20 hrs by broth microdilution method. It is filed as functional.
For data set [5], the system named is Acinetobacter baumannii. The data set is described as follows: Antimicrobial activity against colistin resistant Acinetobacter baumannii ATCC 3658/17 assessed as bacterial growth inhibition incubated for 20 hrs by broth microdilution method. The data set is classed as functional.
The test system of data set [6] is Escherichia coli. The data set is described as follows: Antibacterial activity against […] Escherichia coli clinical isolate 2 assessed as bacterial growth inhibition incubated for 20 hrs by broth microdilution method. It is filed as functional.
The test system of data set [7] is Escherichia coli. Put plainly: Antibacterial activity against […] Escherichia coli clinical isolate 3 assessed as bacterial growth inhibition incubated for 20 hrs by broth microdilution method. It is filed as functional.
Data set [8] deals with Pseudomonas aeruginosa. The data set is described as follows: Antimicrobial activity against Pseudomonas aeruginosa ATCC 27853 assessed as bacterial growth inhibition incubated for 20 hrs by broth microdilution method. It is filed as functional.
In data set [9] the test system is Pseudomonas aeruginosa. The data set is described as follows: Antimicrobial activity against colistin resistant Pseudomonas aeruginosa clinical isolate 1 assessed as bacterial growth inhibition incubated for 20 hrs by broth microdilution method. The data set is classed as functional.
For data set [10], the system named is Klebsiella pneumoniae. The data set is described as follows: Antimicrobial activity against colistin resistant Klebsiella pneumoniae clinical isolate 1 assessed as bacterial growth inhibition incubated for 20 hrs by broth microdilution method. It is filed as functional.
Data set [11] concerns Klebsiella pneumoniae. Put plainly: Antimicrobial activity against colistin resistant Klebsiella pneumoniae clinical isolate 2 assessed as bacterial growth inhibition incubated for 20 hrs by broth microdilution method. The data set is classed as functional.
Data set [12] deals with Klebsiella pneumoniae. The data set is described as follows: Antimicrobial activity against colistin resistant Klebsiella pneumoniae clinical isolate 3 assessed as bacterial growth inhibition incubated for 20 hrs by broth microdilution method. The data set is classed as functional.
The test system of data set [13] is Acinetobacter baumannii. The data set is described as follows: Antimicrobial activity against colistin resistant Acinetobacter baumannii clinical isolate 1 assessed as bacterial growth inhibition incubated for 20 hrs by broth microdilution method. The data set is classed as functional.
Data set [14] relates to Acinetobacter baumannii. Put plainly: Antimicrobial activity against colistin resistant Acinetobacter baumannii clinical isolate 2 assessed as bacterial growth inhibition incubated for 20 hrs by broth microdilution method. It is filed as functional.
Data set [15] deals with Acinetobacter baumannii. The data set is described as follows: Antimicrobial activity against colistin resistant Acinetobacter baumannii clinical isolate 3 assessed as bacterial growth inhibition incubated for 20 hrs by broth microdilution method. The data set is classed as functional.
In data set [16] the test system is Acinetobacter baumannii. The data set is described as follows: Antimicrobial activity against colistin resistant Acinetobacter baumannii clinical isolate 4 assessed as bacterial growth inhibition incubated for 20 hrs by broth microdilution method. It is filed as functional.
Data set [17] has as its system Escherichia coli. The data set is described as follows: Potency index, ratio of colistin MIC to test compound MIC for antibacterial activity against Escherichia coli harboring mcr-1. It is filed as functional.
Data set [18] concerns Pseudomonas aeruginosa. The data set is described as follows: Potency index, ratio of colistin MIC to test compound MIC for antibacterial activity against colistin resistant Pseudomonas aeruginosa clinical isolate 1. The data set is classed as functional.
Data set [19] concerns Escherichia coli. The data set is described as follows: Potency index, ratio of colistin MIC to test compound MIC for antibacterial activity against […] Escherichia coli. The data set is classed as functional.
In a further data set the test system is Erythrocyte. The data set is described as follows: Hemolytic activity in human RBC at 400 ug/ml after 1 hr. The data set is classed as toxicity, cell-based. The note with it: erythrocyte, 1 h, at 400 µg/mL.
A further data set concerns HepG2. Put plainly: Cytotoxicity against human HepG2 cells incubated for 48 hrs by MTT assay. The data set is classed as toxicity, cell-based. For orientation: Tetrazolium dyes change colour on reduction, which living cells bring about.

≈ marks a conversion by molar mass, not a printed value.

For the compound `CCCCCCCC(=O)N[C@@H](CCN)C(=O)N[C@H](C(=O)N[C@@H](CCN)C(=O)N[C@H]1CCNC(=O)[C@H]([C@@H](C)O)NC(=O)[C@H](CCN)NC(=O)[C@H](CCN)NC(=O)[C@H](CCCc2ccccc2)NC(=O)[C@@H](Cc2ccccc2)NC(=O)[C@H](CCN)NC1=O)[C@@H](C)O`, the MIC in the data set on Escherichia coli [1] was 0.5 µg/mL (≈ 0.4 µM); in the data set on Klebsiella pneumoniae [2], less than 0.125 µg/mL; with Pseudomonas aeruginosa [3] it was less than 0.125 µg/mL; with Acinetobacter baumannii [4], 0.125 µg/mL (≈ 0.0999 µM); in the data set on Acinetobacter baumannii [5], less than 0.125 µg/mL; with Escherichia coli [6], 1 µg/mL (≈ 0.799 µM). Besides, the MIC in the data set on Escherichia coli [7] came out at 1 µg/mL (≈ 0.799 µM); in the data set on Pseudomonas aeruginosa [8], 0.125 µg/mL (≈ 0.0999 µM); in the data set on Pseudomonas aeruginosa [9] it was 2 µg/mL (≈ 1.6 µM); with Klebsiella pneumoniae [10] it was 8 µg/mL (≈ 6.39 µM); with Klebsiella pneumoniae [11], 4 µg/mL (≈ 3.2 µM); in the data set on Klebsiella pneumoniae [12], 2 µg/mL (≈ 1.6 µM). The MIC amounted to 2 µg/mL (≈ 1.6 µM) in the data set with Acinetobacter baumannii [13], 0.5 µg/mL (≈ 0.4 µM) in the data set with Acinetobacter baumannii [14], 1 µg/mL (≈ 0.799 µM) in the data set with Acinetobacter baumannii [15] and 2 µg/mL (≈ 1.6 µM) in the data set with Acinetobacter baumannii [16]. Besides, the results for the Ratio with Escherichia coli [17], in the data set on Pseudomonas aeruginosa [18] and with Escherichia coli [19] were 4, 2 and 4, respectively.
In the data set with Erythrocyte, POLYMYXIN B gave an Activity of less than 10%. The IC50 with HepG2 was greater than 1280 µg/mL.

The MIC is the smallest concentration in the dilution series that meets the test's criterion for growth inhibition. The IC50 is the concentration at which inhibition is half-maximal. Read a high IC50 as a need for much substance.

These data come from ChEMBL document CHEMBL5537158, “Polymyxins with Potent Antibacterial Activity against Colistin-Resistant Pathogens: Fine-Tuning Hydrophobicity with Unnatural Amino Acids” (J Med Chem, 2024).
